Values joined by “and” are separate entries in the source; they are usually repeats but may differ in a detail not shown here. Equal entries are not always repeated. Where two headings read alike, the source gives them in different places.
Columns and labels:
[1] = tested on: bone marrow cells; details: for Total Aberrations (Mean ± SD): mean percentage; for MI (Mean ± SD): mitotic index mean percentage; for Structural Aberrations Assoc: number of associations; for Structural Aberrations Brk: number of breaks; for Structural Aberrations Del: number of deletions; for Structural Aberrations Dcn: number of dicentrics; for Structural Aberrations Frag: number of fragments; for Structural Aberrations Gp: number of gaps; for Structural Aberrations Ring: number of rings
Description: (§1) The experimental animals—Rattus norvegicus (Wistar strain; 8–10 weeks old; 120 ± 20 gm; males only) were acquired from Indian Institute of Integrative Medicine (IIIM-CSIR) (Jammu, India), quarantined, acclimatized and sacrificed as per standard practice conforming to the University Ethical Regulations. After acclimatization, rats were divided into five groups by stratified randomization with five animals per group. […] Distilled water was used to prepare dosing solutions of test agent and injected via intraperitoneal (i.p.) injection. At 24, 48 and 72 h post-dosing, 5 rats per duration were sacrificed and necessary tissues were isolated for different cytogenetic and molecular parameters. For CA assessment, separate experimental lot was used due to colchicine treatment.
Method of Preston et al. was used for preparing the metaphase chromosomes. An aqueous solution of Colchicine (4 mg/kgbw) was injected intraperitoneally 2 h prior to sacrificing the animal. Pre-warm KCL (0.075 M) solution was used to collect the bone marrow cells followed by incubation at 37 °C for 20 min, and then centrifuge at 1000 rpm for 10 min. After fixing the pellet in cold Cornoy’s fixative dropped onto clean pre-chilled glass slide in 30% ethanol and dried in air. 5% buffered Giemsa (pH 7.0) was used for staining. Chromosomal aberrations were analyzed on properly separated metaphases and finally photographed at 100× (Olympus U—PMTV microscope), using oil immersion. The metaphase cells from approximately 1000 cells per concentration per animal both in exposed and control replicates, expressed in percentage were considered for mitotic indices (MI).

[2] = tested on: Lymphocytes; details: initial exposure time
Description: as §1
(§2) WBCs were isolated by following the protocol of Lone et al.. Blood was collected in 0.1% EDTA from retro-orbital plexus of rat, followed by incubation for 30 min. 500 µL of blood was then added to a centrifuge tube with 1 mL FACS lysing solution. The blood was incubated for 10 min and centrifuged (2000 rpm, 10 min) at 25 °C. After discarding the supernatant, pellet was washed in 1mL FACS lysing solution followed by centrifuging at 2000 rpm for 5 min. Repeated this step twice and then pellet was put in 500 µL of PBS, leaving only WBCs.
Protocol of Majeed and colleagues was employed for flow cytometric measurements of change in Ψm. […] Leukocytes were identified via forward and side scatter.

[3] = cited from earlier work
[4] = tested on: rat WBCs; details: Mean ± SD, 40 mg/kgbw; for Sub-G1: cells percentage (apoptosis); for G1 / G2/M / S: cells percentage
Description: as §1, §2
Post completion of exposures, PBS was used to wash the harvested cells and fixed in cold ethanol (70%) for 48 h. Cells were digested by RNase (400 μg/mL) at 37 °C for 45 min. After incubating the cells with Propidium iodide (10 μg/mL), examined instantly on flow cytometer FACSAriaII (Becton Dickinson, San Jose, CA, USA). A total of 10,000 events were obtained for cell cycle analysis.

CNC(=O)CSP(=S)(OC)OC [DM, 0,0- Dimethyl S-(N-methylcarbamoylmethyl) phosphorodithiote]
Total Aberrations (Mean ± SD) ([1]; 20 mg/kgbw, 24 h): 5.66 ± 1.03 **^,a %
Total Aberrations (Mean ± SD) ([1]; 20 mg/kgbw, 48 h): 5.33 ± 1.43 **^,a %
Total Aberrations (Mean ± SD) ([1]; 20 mg/kgbw, 72 h): 2.17 ± 0.83 *^,a %
Total Aberrations (Mean ± SD) ([1]; 40 mg/kgbw, 24 h): 5.83 ± 1.69 **^,a %
Total Aberrations (Mean ± SD) ([1]; 40 mg/kgbw, 48 h): 5.16 ± 1.74 **^,a %
Total Aberrations (Mean ± SD) ([1]; 40 mg/kgbw, 72 h): 2.67 ± 0.75 *^,a %
Total Aberrations (Mean ± SD) ([1]; 60 mg/kgbw, 24 h): 7.50 ± 1.15% and 7.50 ± 1.15 **^,a,*^,b %
Total Aberrations (Mean ± SD) ([1]; 60 mg/kgbw, 48 h): 6.83 ± 1.90 **^,a %
Total Aberrations (Mean ± SD) ([1]; 60 mg/kgbw, 72 h): 3.16 ± 0.71 *^,a %
MI (Mean ± SD) ([1]; 20 mg/kgbw, 24 h): 2.19 ± 0.21 *^,a %
MI (Mean ± SD) ([1]; 20 mg/kgbw, 48 h): 2.04 ± 0.15 *^,a %
MI (Mean ± SD) ([1]; 20 mg/kgbw, 72 h): 2.07 ± 0.10 *^,a %
MI (Mean ± SD) ([1]; 40 mg/kgbw, 24 h): 2.16 ± 0.16 *^,a %
MI (Mean ± SD) ([1]; 40 mg/kgbw, 48 h): 1.98 ± 0.08 *^,a %
MI (Mean ± SD) ([1]; 40 mg/kgbw, 72 h): 2.05 ± 0.14 *^,a %
MI (Mean ± SD) ([1]; 60 mg/kgbw, 24 h): 1.92 ± 0.61 *^,a %
MI (Mean ± SD) ([1]; 60 mg/kgbw, 48 h): 1.97 ± 0.12 *^,a %
MI (Mean ± SD) ([1]; 60 mg/kgbw, 72 h): 1.95 ± 0.04 *^,a %
Structural Aberrations Assoc ([1]; 20 mg/kgbw, 24 h): 4
Structural Aberrations Assoc ([1]; 20 mg/kgbw, 48 h): 5
Structural Aberrations Assoc ([1]; 20 mg/kgbw, 72 h): 0
Structural Aberrations Assoc ([1]; 40 mg/kgbw, 24 h): 6
Structural Aberrations Assoc ([1]; 40 mg/kgbw, 48 h): 6
Structural Aberrations Assoc ([1]; 40 mg/kgbw, 72 h): 1
Structural Aberrations Assoc ([1]; 60 mg/kgbw, 24 h): 4
Structural Aberrations Assoc ([1]; 60 mg/kgbw, 48 h): 7
Structural Aberrations Assoc ([1]; 60 mg/kgbw, 72 h): 1
Structural Aberrations Brk ([1]; 20 mg/kgbw, 24 h): 2
Structural Aberrations Brk ([1]; 20 mg/kgbw, 48 h): 9
Structural Aberrations Brk ([1]; 20 mg/kgbw, 72 h): 2
Structural Aberrations Brk ([1]; 40 mg/kgbw, 24 h): 4
Structural Aberrations Brk ([1]; 40 mg/kgbw, 48 h): 3
Structural Aberrations Brk ([1]; 40 mg/kgbw, 72 h): 5
Structural Aberrations Brk ([1]; 60 mg/kgbw, 24 h): 6
Structural Aberrations Brk ([1]; 60 mg/kgbw, 48 h): 7
Structural Aberrations Brk ([1]; 60 mg/kgbw, 72 h): 8
Structural Aberrations Del ([1]; 20 mg/kgbw, 24 h): 4
Structural Aberrations Del ([1]; 20 mg/kgbw, 48 h): 5
Structural Aberrations Del ([1]; 20 mg/kgbw, 72 h): 4
Structural Aberrations Del ([1]; 40 mg/kgbw, 24 h): 4
Structural Aberrations Del ([1]; 40 mg/kgbw, 48 h): 4
Structural Aberrations Del ([1]; 40 mg/kgbw, 72 h): 2
Structural Aberrations Del ([1]; 60 mg/kgbw, 24 h): 6
Structural Aberrations Del ([1]; 60 mg/kgbw, 48 h): 5
Structural Aberrations Del ([1]; 60 mg/kgbw, 72 h): 3
Structural Aberrations Dcn ([1]; 20 mg/kgbw, 24 h): 8
Structural Aberrations Dcn ([1]; 20 mg/kgbw, 48 h): 3
Structural Aberrations Dcn ([1]; 20 mg/kgbw, 72 h): 2
Structural Aberrations Dcn ([1]; 40 mg/kgbw, 24 h): 12
Structural Aberrations Dcn ([1]; 40 mg/kgbw, 48 h): 8
Structural Aberrations Dcn ([1]; 40 mg/kgbw, 72 h): 2
Structural Aberrations Dcn ([1]; 60 mg/kgbw, 24 h): 10
Structural Aberrations Dcn ([1]; 60 mg/kgbw, 48 h): 7
Structural Aberrations Dcn ([1]; 60 mg/kgbw, 72 h): 2
Structural Aberrations Frag ([1]; 20 mg/kgbw, 24 h): 6
Structural Aberrations Frag ([1]; 20 mg/kgbw, 48 h): 12
Structural Aberrations Frag ([1]; 20 mg/kgbw, 72 h): 4
Structural Aberrations Frag ([1]; 40 mg/kgbw, 24 h): 3
Structural Aberrations Frag ([1]; 40 mg/kgbw, 48 h): 16
Structural Aberrations Frag ([1]; 40 mg/kgbw, 72 h): 5
Structural Aberrations Frag ([1]; 60 mg/kgbw, 24 h): 8
Structural Aberrations Frag ([1]; 60 mg/kgbw, 48 h): 14
Structural Aberrations Frag ([1]; 60 mg/kgbw, 72 h): 3
Structural Aberrations Gp ([1]; 20 mg/kgbw, 24 h): 8
Structural Aberrations Gp ([1]; 20 mg/kgbw, 48 h): 6
Structural Aberrations Gp ([1]; 20 mg/kgbw, 72 h): 5
Structural Aberrations Gp ([1]; 40 mg/kgbw, 24 h): 8
Structural Aberrations Gp ([1]; 40 mg/kgbw, 48 h): 7
Structural Aberrations Gp ([1]; 40 mg/kgbw, 72 h): 7
Structural Aberrations Gp ([1]; 60 mg/kgbw, 24 h): 7
Structural Aberrations Gp ([1]; 60 mg/kgbw, 48 h): 8
Structural Aberrations Gp ([1]; 60 mg/kgbw, 72 h): 6
Structural Aberrations Ring ([1]; 20 mg/kgbw, 24 h): 2
Structural Aberrations Ring ([1]; 20 mg/kgbw, 48 h): 6
Structural Aberrations Ring ([1]; 20 mg/kgbw, 72 h): 1
Structural Aberrations Ring ([1]; 40 mg/kgbw, 24 h): 6
Structural Aberrations Ring ([1]; 40 mg/kgbw, 48 h): 5
Structural Aberrations Ring ([1]; 40 mg/kgbw, 72 h): 1
Structural Aberrations Ring ([1]; 60 mg/kgbw, 24 h): 4
Structural Aberrations Ring ([1]; 60 mg/kgbw, 48 h): 9
Structural Aberrations Ring ([1]; 60 mg/kgbw, 72 h): 2
maximum MMP loss ([2]; lymphocytes): greater than 30%
MMP loss in lymphocytes ([2]; range over increased DM doses): 6.3–32.3%
hazard label [3]: Class II, moderately hazardous

O=P1(N(CCCl)CCCl)NCCCO1 (stereo not drawn) [Cyclophosphamide, reference compound]
Total Aberrations (Mean ± SD) ([1]; 40 mg/kgbw, 24 h): 17.50 ± 3.33 ***^,a %
Total Aberrations (Mean ± SD) ([1]; 40 mg/kgbw, 48 h): 13.66 ± 2.56 ***^,a %
Total Aberrations (Mean ± SD) ([1]; 40 mg/kgbw, 72 h): 10.66 ± 2.61 ***^,a %
MI (Mean ± SD) ([1]; 40 mg/kgbw, 24 h): 1.52 ± 0.05 **^,a %
MI (Mean ± SD) ([1]; 40 mg/kgbw, 48 h): 1.56 ± 0.05 **^,a %
MI (Mean ± SD) ([1]; 40 mg/kgbw, 72 h): 1.63 ± 0.03 **^,a %
Structural Aberrations Assoc ([1]; 40 mg/kgbw, 24 h): 9
Structural Aberrations Assoc ([1]; 40 mg/kgbw, 48 h): 7
Structural Aberrations Assoc ([1]; 40 mg/kgbw, 72 h): 4
Structural Aberrations Brk ([1]; 40 mg/kgbw, 24 h): 14
Structural Aberrations Brk ([1]; 40 mg/kgbw, 48 h): 12
Structural Aberrations Brk ([1]; 40 mg/kgbw, 72 h): 9
Structural Aberrations Del ([1]; 40 mg/kgbw, 24 h): 23
Structural Aberrations Del ([1]; 40 mg/kgbw, 48 h): 18
Structural Aberrations Del ([1]; 40 mg/kgbw, 72 h): 15
Structural Aberrations Dcn ([1]; 40 mg/kgbw, 24 h): 25
Structural Aberrations Dcn ([1]; 40 mg/kgbw, 48 h): 18
Structural Aberrations Dcn ([1]; 40 mg/kgbw, 72 h): 14
Structural Aberrations Frag ([1]; 40 mg/kgbw, 24 h): 26
Structural Aberrations Frag ([1]; 40 mg/kgbw, 48 h): 21
Structural Aberrations Frag ([1]; 40 mg/kgbw, 72 h): 19
Structural Aberrations Gp ([1]; 40 mg/kgbw, 24 h): 20
Structural Aberrations Gp ([1]; 40 mg/kgbw, 48 h): 16
Structural Aberrations Gp ([1]; 40 mg/kgbw, 72 h): 13
Structural Aberrations Ring ([1]; 40 mg/kgbw, 24 h): 8
Structural Aberrations Ring ([1]; 40 mg/kgbw, 48 h): 6
Structural Aberrations Ring ([1]; 40 mg/kgbw, 72 h): 3
Sub-G1 ([4]; 24 h): 91.3 ± 4.12 ***^,a
Sub-G1 ([4]; 48 h): 76.3 ± 4.16 ***^,a
Sub-G1 ([4]; 72 h): 98.4 ± 6.01 ***^,a
G1 ([4]; 24 h): 6.06 ± 1.26
G2/M ([4]; 24 h): 2.53 ± 0.06
S ([4]; 24 h): 0.2 ± 0.01
G1 ([4]; 48 h): 21.33 ± 2.41
G2/M ([4]; 48 h): 1.3 ± 0.2
S ([4]; 48 h): 0.06 ± 0.01
G1 ([4]; 72 h): 0.87 ± 0.03
G2/M ([4]; 72 h): 0.4 ± 0.02
S ([4]; 72 h): 0.33 ± 0.11

— PMC7712428, “Dimethoate Induces DNA Damage and Mitochondrial Dysfunction Triggering Apoptosis in Rat Bone-Marrow and Peripheral Blood Cells” (Toxics, 2020)
